Source: patent US10792274B2, “Dehydroacetic acid (DHAA) and derivative for uses in treating cancer” (Emory University, priority 2016, dated 2020)
“Also recorded” adds a separate entry of the source.

Legend:
[1] = serum and tumor metabolite levels and body weight of xenograft mice; format: in vivo
[2] = system: diverse BRAF V600E positive or negative human melanoma cells; assay: control treatments of melanoma cells; format: cell-based
Protocol: (§1) To exclude potential effects of the lithium ion, a series of experiments were performed using a control salt lithium chloride.
In addition, similar studies were performed to exclude possible effects from the potential degradation product of acetoacetate, acetone.

BRAF V600E-MEK1 binding = BRAF V600E-MEK1 binding (Homo sapiens, UniProt P15056, V600E); assay: cell-free in vitro coupled protein-protein binding and kinase assay; format: biochemical; conditions: substance alone
Chain of BRAF V600E-MEK1 binding (P15056 whole entry V600E): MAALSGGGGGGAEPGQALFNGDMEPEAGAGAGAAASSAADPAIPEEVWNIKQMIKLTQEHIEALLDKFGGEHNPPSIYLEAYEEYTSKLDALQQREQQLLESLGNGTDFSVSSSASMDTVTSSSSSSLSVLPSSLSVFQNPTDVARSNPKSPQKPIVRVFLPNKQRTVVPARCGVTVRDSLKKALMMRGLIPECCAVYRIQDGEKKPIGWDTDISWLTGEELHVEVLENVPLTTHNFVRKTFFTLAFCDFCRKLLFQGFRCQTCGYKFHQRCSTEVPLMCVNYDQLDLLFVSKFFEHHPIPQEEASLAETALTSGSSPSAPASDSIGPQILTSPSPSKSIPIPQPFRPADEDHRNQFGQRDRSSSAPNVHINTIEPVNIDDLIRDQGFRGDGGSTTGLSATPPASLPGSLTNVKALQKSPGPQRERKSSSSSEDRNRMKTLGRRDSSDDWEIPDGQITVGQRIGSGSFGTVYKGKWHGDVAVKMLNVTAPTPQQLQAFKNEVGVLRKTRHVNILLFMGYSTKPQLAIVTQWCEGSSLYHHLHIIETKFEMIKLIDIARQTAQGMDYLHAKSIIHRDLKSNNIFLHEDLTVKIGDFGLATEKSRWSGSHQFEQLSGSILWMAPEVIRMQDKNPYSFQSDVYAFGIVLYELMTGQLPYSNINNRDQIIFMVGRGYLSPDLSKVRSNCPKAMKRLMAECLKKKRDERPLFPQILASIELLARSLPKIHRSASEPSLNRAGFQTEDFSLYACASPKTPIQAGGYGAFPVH
Protocol: (§2) Whether DHAA inhibits BRAF V600E directly was examined. […] In contrast, DHAA had no effect on BRAF WT-MEK1 binding or MEK1 phosphorylation in a control experiment using purified BRAF WT incubated with MEK1 in the presence of acetoacetate (FIG. 4I left panel). […] This is physiologically consistent with the acetoacetate levels determined as approximately 300 μM in stable HMGCL knockdown A375 and A2058 cells.

[3] = system: BRAF V600E-expressing human melanoma A375 cells; assay: A375 xenograft in nude mice; format: in vivo; conditions: for BRAF V600E-MEK1 binding in tumors / cell proliferation rates in tumors (Ki67 IHC staining) / xenograft tumor growth (growth rates, sizes, masses) / phosphorylation of MEK1 and ERK1/2 in tumors: single agent; for xenograft tumor growth (growth rates, sizes, masses): normal diet
BRAF V600E [4] = molecular target: T1, BRAF V600E (Homo sapiens, UniProt P15056, V600E); assay: thermal melt shift assay, purified recombinant protein; format: binding
T1 sequence (P15056 whole entry V600E): as above
Protocol: Arrows in the panel indicate melting temperatures at 0 μM (left) and 400 μM (right).
(§3) Whether functional inhibition of acetoacetate would attenuate BRAF V600E tumor growth was examined. Dehydroacetic acid (DHAA) (FIG. 4A) is an inhibitory homologue of acetoacetate.

[5] = system: BRAF V600E-expressing human melanoma A2058 cells; assay: A2058 xenograft in nude mice; format: in vivo
Description: Xenograft tumor growth and in nude mice inoculated with BRAF V600E-positive human melanoma A2058 fed with normal or high-fat diets followed by intraperitoneal injection with DHAA.

BRAF V600E [6] = molecular target: T1, BRAF V600E; assay: BRAF V600E kinase activity (Vmax and Km), MEK1 as substrate; format: biochemical; conditions: acetoacetate binding; MEK1 as substrate
Protocol: as §2

[7] = system: diverse BRAF V600E-expressing cells; assay: DHAA with or without acetoacetate treatment of cells; format: cell-based; conditions: DHAA plus acetoacetate treatment
[8] = system: NRAS Q61K-expressing HMCB cells; assay: HMCB xenograft in nude mice; format: in vivo; conditions: for BRAF-MEK1 binding in tumors / cell proliferation rates in tumors (Ki67 IHC staining) / phosphorylation of MEK1 and ERK1/2 (MEK-ERK activation) in tumors / xenograft tumor growth (growth rates, sizes, masses): single agent; for xenograft tumor growth (growth rates, sizes, masses): normal diet
[9] = molecular target: T2, V600E mutant of an active, truncated C-terminal domain of BRAF (tBRAF, 416-766 aa) (Homo sapiens, UniProt P15056, V600E); assay: 14C-labeled acetoacetate binding assay
T2 construct: truncated C-terminal domain of BRAF (tBRAF, 416-766 aa)
T2 sequence (P15056 416-766 V600E): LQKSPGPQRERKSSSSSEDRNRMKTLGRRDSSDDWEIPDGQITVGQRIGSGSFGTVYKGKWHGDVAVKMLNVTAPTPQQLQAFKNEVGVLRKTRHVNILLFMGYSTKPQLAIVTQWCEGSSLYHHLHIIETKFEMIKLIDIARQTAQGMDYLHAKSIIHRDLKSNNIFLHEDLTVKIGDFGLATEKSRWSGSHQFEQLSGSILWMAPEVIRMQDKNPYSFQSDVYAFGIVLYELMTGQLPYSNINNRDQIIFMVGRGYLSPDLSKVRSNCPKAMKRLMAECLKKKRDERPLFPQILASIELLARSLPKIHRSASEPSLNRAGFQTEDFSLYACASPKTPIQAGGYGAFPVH
Protocol: (§4) A series of radiometric metabolite-protein interaction analyses were performed using ^14C labeled acetoacetate incubated with purified BRAF variants in the presence and absence of DHAA.

FLAG-tagged BRAF V600E = molecular target: T3, FLAG-tagged BRAF V600E (Homo sapiens, UniProt P15056, V600E); assay: cellular thermal shift assay, lysates of transfected 293T cells; format: binding; conditions: 400 μM
T3 construct: FLAG; expressed in transfected cells; host or cells: 293T cells (lysates)
T3 sequence (P15056 whole entry V600E): as the sequence (P15056 whole entry V600E) above
Description: as §3

BRAF V600R-MEK1 binding = BRAF V600R-MEK1 binding (Homo sapiens, UniProt P15056, V600R); assay: MEK1 binding to BRAF mutants; format: biochemical
Chain of BRAF V600R-MEK1 binding (P15056 whole entry V600R): as the sequence (P15056 whole entry V600E) above, with E600R counted along it
Chain of BRAF V600R-MEK1 binding (Q02750 whole entry partner): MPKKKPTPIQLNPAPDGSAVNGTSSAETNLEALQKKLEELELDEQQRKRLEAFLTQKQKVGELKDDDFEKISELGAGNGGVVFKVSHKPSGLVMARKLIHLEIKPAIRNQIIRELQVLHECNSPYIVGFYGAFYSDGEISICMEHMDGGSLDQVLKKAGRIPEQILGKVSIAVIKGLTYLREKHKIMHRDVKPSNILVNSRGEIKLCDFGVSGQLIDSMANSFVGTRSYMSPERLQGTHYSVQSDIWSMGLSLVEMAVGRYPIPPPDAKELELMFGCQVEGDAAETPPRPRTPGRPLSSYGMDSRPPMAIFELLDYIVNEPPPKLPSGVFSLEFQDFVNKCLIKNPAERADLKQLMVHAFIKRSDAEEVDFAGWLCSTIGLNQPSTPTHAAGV

[10] = system: Me1-ST cells expressing BRAF V600E; assay: immortalized melanocyte treatment: proliferation, MEK-ERK activation, BRAF-MEK1 binding; format: cell-based; conditions: DHAA plus acetoacetate rescue treatment
[11] = format: physicochemical
Protocol: as §1

BRAF V600D-MEK1 binding = BRAF V600D-MEK1 binding (Homo sapiens, UniProt P15056, V600D); assay: MEK1 binding to BRAF mutants; format: biochemical
Chain of BRAF V600D-MEK1 binding (P15056 whole entry V600D): as the sequence (P15056 whole entry V600E) above, with E600D counted along it
Chain of BRAF V600D-MEK1 binding (Q02750 whole entry partner): as the sequence (Q02750 whole entry partner) above

[12] = system: control V600A mutant or other clinically reported BRAF mutants including K507E, N581S, D594N, L597Q, K601E, and S616F; assay: 14C-labeled acetoacetate binding assay, other BRAF mutants
Protocol: (§5) BRAF wild type and mutant proteins were incubated with increasing concentrations of ^14C-labeled acetoacetate.
as §4

BRAF V600D = BRAF V600D (Homo sapiens, UniProt P15056, V600D); assay: 14C-labeled acetoacetate binding assay
Chain of BRAF V600D (P15056 whole entry V600D): as the sequence (P15056 whole entry V600E) above, with E600D counted along it
Protocol: as §5, §4

BRAF V600R = BRAF V600R (Homo sapiens, UniProt P15056, V600R); assay: 14C-labeled acetoacetate binding assay
Chain of BRAF V600R (P15056 whole entry V600R): as the sequence (P15056 whole entry V600E) above, with E600R counted along it
Protocol: as §5, §4

[13] = chronic injection of acetoacetate or 3HB to nude mice; format: in vivo; conditions: chronic injection for 4 weeks
BRAF V600E [14] = molecular target: T1, BRAF V600E; assay: 14C-labeled acetoacetate binding assay (radiometric metabolite-protein interaction)
Protocol: as §5, §4

[15] = system: other BRAF mutants-MEK1 binding; assay: MEK1 binding to BRAF mutants; format: biochemical
[16] = acetoacetate injection in mice treated with fluvastatin, niacin or fenofibrate
[17] = increasing concentrations of 14C-labeled acetoacetate
[18] = DHAA plus intraperitoneal acetoacetate

For [Cl-].[Li+] [lithium chloride], the serum cholesterol levels ([1]; effect of treatment) was “nor did it affect”, the “serum levels of 3HB (β-hydroxybutyrate)” value ([1]; effect of treatment) was “nor did it affect” and the “BRAF V600E-MEK1 binding” value [2] was “did not affect”. For the same compound, the cell proliferation rates [2] was “did not affect”, the “phosphorylation levels of MEK1 or ERK1/2” value [2] was “did not affect” and the “promotion of association between purified BRAF V600E and MEK1” value (BRAF V600E-MEK1 binding) was “did not”. The “BRAF V600E-MEK1 binding in tumors” value [3] was “nor did it affect”, the “cell proliferation rates in tumors (Ki67 IHC staining)” value (from here on “cell proliferation rates in tumors”) [3] was “nor did it affect” and the “xenograft tumor growth (growth rates, sizes, masses)” value (“xenograft tumor growth” for short) [3] was “did not affect tumor growth potential”. The “binding in thermal melt shift assay” value (BRAF V600E [4]) was “did not bind”.
In the case of O=C(O)c1cccnc1 [niacin], the serum cholesterol levels ([1]; effect of treatment) is reported as “marginally decreased serum cholesterol levels”, the “serum levels of acetoacetate” value ([1]; effect of treatment) is reported as “reduced serum levels of acetoacetate; also recorded: decrease serum acetoacetate levels” and the “BRAF V600E-MEK1 binding in tumors” value [3] is reported as “decreased BRAF V600E-MEK1 association”. For the same compound, the “cell proliferation rates in tumors” value [3] was “reduced cell proliferation rates”, the “phosphorylation of MEK1 and ERK1/2 in tumors” value [3] was “decreased phosphorylation of MEK1 and ERK1/2” and the “xenograft tumor growth” value [3] was “effectively attenuated tumor growth potential; also recorded: reduce BRAF V600E tumor growth”.
In the case of CC(=O)CC(=O)O [acetoacetate], the “serum levels of acetoacetate” value ([1]; acetoacetate injection in DHAA-treated A375 xenograft mice) is reported as “increased serum levels of acetoacetate”, the “serum 3HB levels” value [1, 16] is reported as “did not affect 3HB levels” and the serum acetoacetate levels [1, 16] is reported as “rescued the decreased serum acetoacetate levels”. The “serum levels of 3HB (β-hydroxybutyrate)” value ([1]; effect of treatment) was “did not affect serum levels of 3HB”, the “serum levels of acetoacetate” value ([1]; effect of treatment) was “increased serum levels of acetoacetate” and the “rescue by acetoacetate injection of fenofibrate-decreased tumor growth” value ([5]; intraperitoneal acetoacetate plus fenofibrate) was “effectively rescued the decreased tumor growth”. The “reversal by acetoacetate injection of hypolipidemic agents' inhibitory effects (MEK1/ERK1/2 phosphorylation, BRAF V600E-MEK1 association, Ki67)” value ([5]; tumors) was “effectively reversed”, the “Km of BRAF V600E” value (BRAF V600E [6]) was “slightly decreased Km” and the “Vmax of BRAF V600E” value (BRAF V600E [6]) was “increased Vmax”. For the same compound, the “reversal by acetoacetate of DHAA-decreased MEK-ERK activation” value [7] was “could not be reversed”, the “reversal by acetoacetate of DHAA-reduced cell proliferation” value [7] was “could not be reversed” and the “effect of acetoacetate injection on tumor growth potential” value ([8]; intraperitoneal acetoacetate, fenofibrate study) was “had no effect on tumor growth potential”. For the same compound, the “BRAF-MEK1 binding in tumors” value [8] was “did not affect”, the “cell proliferation rates in tumors” value [8] was “did not affect” and the “phosphorylation of MEK1 and ERK1/2 (MEK-ERK activation) in tumors” value [8] was “did not affect”. For the same compound, the “xenograft tumor growth” value [8] was “had no effect on growth rates or masses of tumor xenografts”, the “binding of 14C-labeled acetoacetate” value [9] was “specifically bound” and the “binding in cellular thermal shift assay” value (FLAG-tagged BRAF V600E) was “bound only to BRAF V600E”. For the same compound, the “promotion of MEK1 binding to BRAF V600R with increased MEK1 phosphorylation” value (BRAF V600R-MEK1 binding) was “promoted MEK1 binding”, the “reversal by acetoacetate of the inhibitory effect of DHAA on cell proliferation” value [10] was “did not reverse” and the “stability of anion form relative to acid form” value [11] was “approximately 55 times”. For the same compound, the “promotion of association between purified BRAF V600E and MEK1” value (BRAF V600E-MEK1 binding) was “promoted MEK1 binding”, the “promotion of MEK1 binding to BRAF V600D with increased MEK1 phosphorylation” value (BRAF V600D-MEK1 binding) was “promoted MEK1 binding” and the “binding of 14C-labeled acetoacetate” value [12] was “but not to a negative control mutant V600A or to other clinically reported BRAF mutants”. For the same compound, the “binding of 14C-labeled acetoacetate” value (BRAF V600D) was “bound”, the Kd (BRAF V600D; [17]) was roughly 93 µM and the “binding of 14C-labeled acetoacetate” value (BRAF V600R) was “bound”. The Kd (BRAF V600R; [17]) was roughly 113 µM, the “acetoacetate or 3HB levels in urine” value [13] was “did not alter” and the serum acetoacetate levels [13] was “increased serum acetoacetate”. The “reversal by acetoacetate injection of DHAA inhibition of BRAF V600E-MEK1 binding in tumors” value [3, 18] was “did not reverse”, the “reversal by acetoacetate injection of DHAA inhibition of MEK1 and ERK1/2 phosphorylation in tumors” value [3, 18] was “did not reverse” and the “reversal by acetoacetate injection of DHAA inhibition of cell proliferation rates (Ki67) in tumors” value [3, 18] was “did not reverse”. For the same compound, the “reversal by acetoacetate injection of fluvastatin- or niacin-attenuated tumor growth” value ([3]; intraperitoneal acetoacetate plus oral fluvastatin or niacin) was “could be reversed”, the “BRAF V600E-MEK1 binding in tumors” value [3] was “enhanced BRAF V600E-MEK1 association” and the “cell proliferation rates in tumors” value [3] was “enhanced cell proliferation rates”. The “phosphorylation of MEK1 and ERK1/2 in tumors” value [3] was “enhanced phosphorylation of MEK1 and ERK1/2”, the “xenograft tumor growth” value [3] was “increased growth rates and masses of xenograft tumors; also recorded: increased tumor sizes; also recorded: selectively promotes” and the “reversal by acetoacetate injection of hypolipidemic agents' inhibitory effects (MEK1/ERK1/2 phosphorylation, BRAF V600E-MEK1 association, Ki67)” value ([3]; tumors) was “effectively reversed”. The Kd (BRAF V600E [14]; [17]) was roughly 92 µM, the “binding of 14C-labeled acetoacetate” value (BRAF V600E [14]; purified BRAF V600E) was “binds to purified BRAF V600E; also recorded: specifically bound” and the “promotion of MEK1 binding to other BRAF mutants” value [15] was “but not to other BRAF mutants”.
With C[C@@H](O)CC(=O)O [3HB, D-β-hydroxybutyrate] the “serum levels of 3HB (β-hydroxybutyrate)” value ([1]; effect of treatment) was “increased serum levels of β-hydroxybutyrate”, the “BRAF-MEK1 binding in tumors” value [8] was “did not affect” and the “cell proliferation rates in tumors” value [8] was “did not affect”. The “phosphorylation of MEK1 and ERK1/2 (MEK-ERK activation) in tumors” value [8] was “did not affect”, the “xenograft tumor growth” value [8] was “had no effect on growth rates or masses of tumor xenografts” and the “acetoacetate or 3HB levels in urine” value [13] was “did not alter”. For the same compound, the “serum 3HB levels” value [13] was “increased 3HB”.
For CC(C)=O [acetone], the “BRAF V600E-MEK1 binding” value [2] was “did not affect”, the cell proliferation rates [2] was “did not affect” and the “phosphorylation levels of MEK1 or ERK1/2” value [2] was “did not affect”. The “promotion of association between purified BRAF V600E and MEK1” value (BRAF V600E-MEK1 binding) was “did not” and the “binding in thermal melt shift assay” value (BRAF V600E [4]) was “did not bind”.
